Data set [1] has as its target T1, P2X purinoceptor 7 (Mus musculus) (UniProt Q9Z1M0).
T1 sequence (whole entry): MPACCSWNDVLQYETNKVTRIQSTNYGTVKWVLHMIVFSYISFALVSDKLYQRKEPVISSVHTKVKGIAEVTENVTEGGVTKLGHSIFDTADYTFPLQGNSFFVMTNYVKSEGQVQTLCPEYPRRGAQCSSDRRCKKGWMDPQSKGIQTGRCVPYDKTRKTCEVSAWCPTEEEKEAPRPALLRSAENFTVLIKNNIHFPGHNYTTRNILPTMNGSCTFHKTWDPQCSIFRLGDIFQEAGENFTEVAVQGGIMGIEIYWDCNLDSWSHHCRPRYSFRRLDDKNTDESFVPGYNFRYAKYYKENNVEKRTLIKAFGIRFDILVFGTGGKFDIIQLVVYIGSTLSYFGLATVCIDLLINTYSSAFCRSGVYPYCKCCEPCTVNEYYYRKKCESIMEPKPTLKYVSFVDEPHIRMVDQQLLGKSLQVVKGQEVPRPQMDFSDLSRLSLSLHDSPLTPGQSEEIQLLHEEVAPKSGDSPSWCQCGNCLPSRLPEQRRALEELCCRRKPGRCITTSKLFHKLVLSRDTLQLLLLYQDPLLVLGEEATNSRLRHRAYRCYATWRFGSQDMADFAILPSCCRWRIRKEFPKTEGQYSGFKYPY
The experiment in a line: Antagonist activity at mouse P2X7 receptor expressed in HEK293 cells assessed as inhibition of ATP-induced receptor pore formation at 1 uM by propidium iodide dye uptake based fluorescence analysis. The data set is classed as cell-based. The settings on record: filed as antagonist.

A short description of data set [2]: Half life in human liver microsomes. It is filed as ADME, Microsome. On the technique in general: Liver microsomes are vesicles of endoplasmic reticulum, rich in cytochrome P450 enzymes.
The subject of a further data set is HEK293. Description: Cytotoxicity against human HEK293 cells transfected with mouse P2X7 receptor assessed as effect on cell viability at 1 to 4 uM incubated for 2 hrs by CCK8 assay. It is filed as toxicity, cell-based. Particulars: hek293, 2 h, dose 1-4 µM. On the technique in general: Formazan colour is commonly taken as a measure of viable cells.
In a further data set the target is T2, P2X purinoceptor 7 (Homo sapiens, UniProt Q99572).
T2 sequence (Q99572 whole entry): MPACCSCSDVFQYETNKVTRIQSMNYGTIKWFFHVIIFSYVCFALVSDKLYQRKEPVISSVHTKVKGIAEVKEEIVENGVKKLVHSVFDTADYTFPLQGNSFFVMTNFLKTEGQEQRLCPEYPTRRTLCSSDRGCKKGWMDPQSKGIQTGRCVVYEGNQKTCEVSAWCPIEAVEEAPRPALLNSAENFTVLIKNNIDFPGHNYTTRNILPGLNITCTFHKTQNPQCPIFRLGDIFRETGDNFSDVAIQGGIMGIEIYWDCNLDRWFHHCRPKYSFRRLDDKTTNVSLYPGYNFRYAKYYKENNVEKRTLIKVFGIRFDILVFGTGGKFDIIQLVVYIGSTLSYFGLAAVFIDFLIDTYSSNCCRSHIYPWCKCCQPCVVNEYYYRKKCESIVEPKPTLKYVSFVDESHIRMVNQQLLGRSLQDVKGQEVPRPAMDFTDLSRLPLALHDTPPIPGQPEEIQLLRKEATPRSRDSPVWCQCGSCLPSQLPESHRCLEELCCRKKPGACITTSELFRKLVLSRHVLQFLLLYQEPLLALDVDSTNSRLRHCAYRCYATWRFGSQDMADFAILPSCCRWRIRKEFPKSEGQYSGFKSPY
The experiment in a line: Antagonist activity at P2X7 receptor in human THP-1 cells assessed as inhibition of ATP-induced IL-1beta secretion pretreated with LPS for 3 hrs followed by incubation with compound for 40 mins followed by treatment with ATP for 1 hr by ELISA. The data set is classed as cell-based. (In an ELISA, binding on a coated surface is turned into a signal by an enzyme label.)

A short description of data set [3]: AUC(0 to t) in BALB/c mouse at 10 mg/kg, iv measured for 24 hrs by LC-MS/MS analysis. The data set is classed as ADME, organism-based. Details: time 24 hrs, dose 10 mg/kg, route iv. Particulars: in vivo.
Data set [4] can be described thus: Half life in BALB/c mouse at 10 mg/kg, ip measured for 24 hrs by LC-MS/MS analysis. The data set is classed as ADME, organism-based. The settings on record: in vivo.
For a further data set, the target named is Cytochrome P450 2C9 (Homo sapiens, UniProt P11712). The experiment in a line: Inhibition of CYP2C9 in human liver microsomes using tolbutamide as substrate upto 100 uM incubated for 10 mins in presence of NADPH by LC-MS/MS analysis. It is filed as ADME, Microsome.
Data set [5] can be described thus: Toxicity in C57BL/6J mouse assessed as pathological changes in spleen at 20 mg/kg, ip administered twice at 0 hrs and 8 hrs and measured after 16 hrs by Hematoxylin-Eosin staining based analysis. It is filed as organism-based. Particulars: in vivo.
Data set [6] is described as follows: Toxicity in C57BL/6J mouse assessed as mortality at 600 mg/kg, ip measured for 14 days. The settings on record: in vivo, 336 h, time 14 day. It is filed as organism-based.
The test system of data set [7] is Mus musculus. Description: Reno-protective activity against LPS-induced acute kidney injury C57BL/6J mouse model assessed as decrease in tubular injury by measuring improvement of infiltration of inflammatory cells at 5 to 20 mg/kg, ip administered twice at 30 mins prior to LPS challenge and 8 hrs post-LPS challenge and measured at 16 hrs post-LPS challenge by Hematoxylin-Eosin staining based analysis. The data set is classed as functional, organism-based. Particulars: dose 5-20 mg/kg, time 16.5 hrs.

In data set [8] the test system is Mus musculus. The experiment in a line: Reno-protective activity against LPS-induced acute kidney injury C57BL/6J mouse model assessed as decrease in KIM1 mRNA expression in kidney at 5 to 20 mg/kg, ip administered twice at 30 mins prior to LPS challenge and 8 hrs post-LPS challenge and measured at 16 hrs post-LPS challenge by RT-qPCR analysis. The data set is classed as functional, organism-based. Particulars: dose 5-20 mg/kg, time 16.5 hrs.

Data set [9] has as its system Mus musculus. Description: Reno-protective activity against CLP-induced acute kidney injury C57BL/6J mouse model assessed as decrease in KIM1 mRNA expression in kidney at 20 mg/kg, ip administered twice at 30 mins prior to CLP operation and 8 hrs post-CLP operation and measured at 16 hrs post-CLP operation by RT-qPCR analysis. It is filed as functional, organism-based. Particulars: time 16.5 hrs.

Data set [10] relates to Mus musculus. Description: Reno-protective activity against CLP-induced acute kidney injury C57BL/6J mouse model assessed as decrease in NLRP3 mRNA expression in kidney at 20 mg/kg, ip administered twice at 30 mins prior to CLP operation and 8 hrs post-CLP operation and measured at 16 hrs post-CLP operation by RT-qPCR analysis. The data set is classed as functional, organism-based. Particulars: time 16.5 hrs.

Data set [11] has as its system Mus musculus. The experiment in a line: Reno-protective activity against CLP-induced acute kidney injury C57BL/6J mouse model assessed as decrease in IL-18 mRNA expression in kidney at 20 mg/kg, ip administered twice at 30 mins prior to CLP operation and 8 hrs post-CLP operation and measured at 16 hrs post-CLP operation by RT-qPCR analysis. It is filed as functional, organism-based. Particulars: time 16.5 hrs.

The subject of data set [12] is Mus musculus. The experiment in a line: Reno-protective activity against CLP-induced acute kidney injury C57BL/6J mouse model assessed as decrease in NLRP3 protein expression in kidney at 20 mg/kg, ip administered twice at 30 mins prior to CLP operation and 8 hrs post-CLP operation and measured at 16 hrs post-CLP operation by western blot analysis. It is filed as functional, organism-based. The settings on record: time 16.5 hrs.

The test system of data set [13] is Mus musculus. The experiment in a line: Reno-protective activity against CLP-induced acute kidney injury C57BL/6J mouse model assessed as decrease in GSDMD-N protein expression in kidney at 20 mg/kg, ip administered twice at 30 mins prior to CLP operation and 8 hrs post-CLP operation and measured at 16 hrs post-CLP operation by western blot analysis. The settings on record: time 16.5 hrs. The data set is classed as functional, organism-based.

Data set [14] concerns Mus musculus. Description: Reno-protective activity against ip dosed LPS-induced acute kidney injury C57BL/6J mouse model assessed as decrease in serum […] level administered twice at 30 mins prior to LPS challenge and 8 hrs post-LPS challenge and measured at 16 hrs post-LPS challenge. It is filed as functional. The settings on record: time 16.5 hrs, read-out: MED.

Molecules are shown by their SMILES. The source made the active and inactive calls. The calls are words filed in the database; no cut-off is given here.

Sequence of Cytochrome P450 2C9 (P11712 whole entry): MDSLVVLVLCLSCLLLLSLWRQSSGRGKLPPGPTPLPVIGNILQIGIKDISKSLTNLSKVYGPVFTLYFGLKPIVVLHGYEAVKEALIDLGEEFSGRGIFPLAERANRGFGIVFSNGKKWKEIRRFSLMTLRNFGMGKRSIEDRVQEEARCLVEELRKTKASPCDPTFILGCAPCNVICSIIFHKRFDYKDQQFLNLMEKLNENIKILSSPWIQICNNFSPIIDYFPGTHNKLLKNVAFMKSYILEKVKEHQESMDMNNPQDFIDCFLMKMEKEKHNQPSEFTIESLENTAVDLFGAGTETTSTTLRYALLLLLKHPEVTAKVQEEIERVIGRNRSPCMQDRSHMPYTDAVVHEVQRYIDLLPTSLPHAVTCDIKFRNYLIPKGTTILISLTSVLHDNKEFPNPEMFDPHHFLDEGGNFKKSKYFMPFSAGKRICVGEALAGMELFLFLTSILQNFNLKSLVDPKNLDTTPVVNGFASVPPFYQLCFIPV

Broadly, the inhibition is the change of the read-out against control, counted positive when it falls. As usually defined, the half-life is how long it takes for the measured level to halve. High values mean slow decline, low ones rapid decline. One may read the IC50 as the concentration at which inhibition is half-maximal. For orientation: AUC(0-t) means exposure summed from dosing to a finite time, without extrapolation to infinity. A lower AUC(0-t) goes with low exposure. As to `CS(=O)(=O)c1ccc(-c2nc(C(=O)NCc3cn(-c4cc(Br)ccn4)nn3)cs2)cc1`, the inhibition in data set [1] was determined as 107%. Also, the half-life in data set [2] was 1.75 h; in [4], 6.12 h. The Activity entry in the data set on HEK293 was “Non-Toxic”; in data set [5], “Non-Toxic”; in data set [6], “Toxic”; in the data set with Mus musculus [7], “Dose-Dependent Effect”; in the data set with Mus musculus [8], “Dose-Dependent Effect”. Besides, the IC50 at P2X purinoceptor 7 was 327 nM. The molecule further registered an AUC(0-t) at 24 h in data set [3] of 16600 ng·h/mL. Also, the “inhibition (INH)” value on Cytochrome P450 2C9 is on record as “Not Active”. In addition, the result in the data set on Mus musculus [9], in the data set on Mus musculus [10], with Mus musculus [11], in the data set on Mus musculus [12] and in the data set on Mus musculus [13] was Active. The minimal effective dose in the data set on Mus musculus [14] was determined as 5 mg/kg.

(Values after ChEMBL document CHEMBL5360655, “Design, Synthesis, and Biological Evaluation of Novel P2X7 Receptor Antagonists for the Treatment of Septic Acute Kidney Injury” (J Med Chem, 2023).)
